This note sets out measurements from article PMC7327142 (Biomolecules & Therapeutics, 2020).

The test system of one series is HEK293 cells. As to conditions: for Cytotoxicity against HEK cells: 25 h.

Turning to `CC(C)(O)C#Cc1ccc(C(=O)N2CCCC(CCC(=O)NCc3ccccc3F)C2)cc1` (stereo not shown) [Compound 35, N-(2-fluorobenzyl)-3-{1-[4-(3-hydroxy-3-methyl-1-butyn-1-yl)benzoyl]-3-piperidinyl}propanamide], in the series on HEK293 cells (20 µM), the “Cytotoxicity against HEK cells” value was determined as 0.580.
Still for that read-out and setting: under `O=C(c1cc(-c2ccc(F)cc2)n[nH]1)N1CCC(Cc2ccc(CO)cc2)C1` (stereo not shown) [Compound 22, {4-[(1-{[3-(4-fluorophenyl)-1H-pyrazol-5-yl]carbonyl}pyrrolidin-3-yl)methyl]phenyl}methanol] stands 0.596.
In the case of `O=C(NCCS(=O)(=O)N1CCc2ccccc2C1)C1CC(=O)N(c2ccc(Cl)cc2)C1` (stereo not shown) [Compound 74, 1-(4-chlorophenyl)-N-(2-((3,4-dihydroisoquinolin-2(1H)-yl)sulfonyl)ethyl)-5-oxopyrrolidine-3-carboxamide], in the series with Vero cells, the “cytotoxicity in Vero cells” value was “no cytotoxicity” and the “growth of Vero cells” value is listed as “reduced the growth”. For the same compound, the “Cytotoxicity against HEK cells” value in the series with HEK293 cells (20 µM) is on record as 0.568.
`Cc1ccc(N2CC(C(=O)NCCS(=O)(=O)N3CCc4ccccc4C3)CC2=O)cc1` (stereo not shown) [Compound 75, N-(2-((3,4-dihydroisoquinolin-2(1H)-yl)sulfonyl)ethyl)-5-oxo-1-(p-tolyl)pyrrolidine-3-carboxamide]: the “Cytotoxicity against HEK cells” value in the series with HEK293 cells (20 µM) is 0.604.
For the compound `COc1cccc(N2CC(C(=O)NCCS(=O)(=O)N3CCc4ccccc4C3)CC2=O)c1` (stereo not shown) [Compound 77, N-(2-((3,4-dihydroisoquinolin-2(1H)-yl)sulfonyl)ethyl)-1-(3-methoxyphenyl)-5-oxopyrrolidine-3-carboxamide], the “Cytotoxicity against HEK cells” value in the series on HEK293 cells (20 µM) is listed as 0.578.
For `COC(=O)c1c(NC(=O)C2CCCO2)c2cc(NCc3cccc(OCCO)c3)cnc2n1CCc1ccccc1` (stereo not shown) [Compound 69, methyl 5-{[3-(2-hydroxyethoxy)benzyl]amino}-1-(2-phenylethyl)-3-[(tetrahydro-2-furanylcarbonyl)amino]-1H-pyrrolo[2,3-b]pyridine-2-carboxylate], in the series on HEK293 cells, the “effect on growth and proliferation of HEK293 cells” value is given as “decreased the cell numbers”. For the same compound, in the series with HEK293 cells (20 µM), the “morphological changes in HEK293 cells” value is “slightly triggered cellular shrinking” and the “Cytotoxicity against HEK cells” value turned out to be 0.529.
Turning to `O=C(CCCN1C(=O)c2ccccc2C1=O)Nc1ccc2ccccc2c1` [Compound 4, 4-(1,3-dioxo-1,3-dihydro-2H-isoindol-2-yl)-N-2-naphthylbutanamide], the “effect on growth and proliferation of HEK293 cells” value with HEK293 cells is “decreased the cell numbers”. Besides, the “Cytotoxicity against HEK cells” value with HEK293 cells (20 µM) stood at 0.603.
With `Cn1cc(C(=O)N2CCN(CCOc3ccc(CN4CCC(Cc5ccccc5)CC4)cc3)CC2)c(=O)c2ccccc21` [Compound 58, 3-{[4-(2-{4-[(4-benzyl-1-piperidinyl)methyl]phenoxy}ethyl)-1-piperazinyl]carbonyl}-1-methyl-4(1H)-quinolinone], the “Cytotoxicity against HEK cells” value with HEK293 cells (20 µM) is 0.602.
Still for that read-out and setting: under `O=C(CCCc1ccccc1)Nc1cccc(N2CCC(NCc3cccnc3)CC2)c1` [Compound 33, 4-phenyl-N-(3-{4-[(3-pyridinylmethyl)amino]-1-piperidinyl}phenyl)butanamide] stands 0.588.
Same read-out and setting: then `CN(Cc1ccc(OCCN2CCN(C(=O)C3Cc4ccccc4O3)CC2)cc1)Cc1ccc2ncccc2c1` (stereo not shown) [Compound 60, (4-{2-[4-(2,3-dihydro-1-benzofuran-2-ylcarbonyl)-1-piperazinyl]ethoxy}benzyl)methyl(6-quinolinylmethyl)amine], with 0.572; and `Cc1ccc(N2CC(C(=O)NCCS(=O)(=O)N3CCc4ccccc4C3)CC2=O)cc1C` (stereo not shown) [Compound 76, N-(2-((3,4-dihydroisoquinolin-2(1H)-yl)sulfonyl)ethyl)-1-(3,4-dimethylphenyl)-5-oxopyrrolidine-3-carboxamide], with 0.520; and `COCc1ccc(C(=O)NCc2nc(-c3cccc(NC(=O)C4CCCN(C)C4)c3)oc2C)s1` (stereo not shown) [Compound 26, N-(3-{4-[({[5-(methoxymethyl)-2-thienyl]carbonyl}amino)methyl]-5-methyl-1,3-oxazol-2-yl}phenyl)-1-methyl-3-piperidinecarboxamide], with 0.587.
The same measure, in the same setting: then `O=C(Nc1cccc(N2CCC(NCCC(c3ccc(F)cc3)c3ccco3)CC2)c1)c1ccncc1` (stereo not shown) [Compound 61, N-[3-(4-{[3-(4-fluorophenyl)-3-(2-furyl)propyl]amino}-1-piperidinyl)phenyl]isonicotinamide], with 0.173; and `O=C(NCCS(=O)(=O)N1CCN(c2ccc(F)cc2)CC1)C1CC(=O)N(c2ccccc2)C1` (stereo not shown) [Compound 78, N-(2-((4-(4-fluorophenyl)piperazin-1-yl)sulfonyl)ethyl)-5-oxo-1-phenylpyrrolidine-3-carboxamide], with 0.574.
For `O=C(C1CCCN(c2cccc3c2C(=O)N(Cc2ccsc2)C3=O)C1)N1CCC(O)(c2cccc(C(F)(F)F)c2)CC1` (stereo not shown) [Compound 73, 4-[3-({4-hydroxy-4-[3-(trifluoromethyl)phenyl]-1-piperidinyl}carbonyl)-1-piperidinyl]-2-(3-thienylmethyl)-1H-isoindole-1,3(2H)-dione], in the series on Vero cells, the “cytotoxicity in Vero cells” value is on record as “no cytotoxicity” and the “growth of Vero cells” value is listed as “reduced the growth”. Also, the “Cytotoxicity against HEK cells” value in the series on HEK293 cells (20 µM) is reported as 0.602.
